Results: patent publication US20250243180A1, “TARGETED PROTEIN DEGRADATION” (Monte Rosa Therapeutics AG, priority 2023, published 2025)
pEC50: −log10 of the molar value. Where two headings read alike, the source gives them in different places.

Legend:
CRBN-DDB1 = CRBN-DDB1 (Homo sapiens (Human), UniProt Q96SW2); experiment: Compound binding to CRBN by HTRF assay
Protocol: Compound activity was monitored in a Homogenous Time-Resolved Fluorescence (HTRF) assay using 1-[5-({2-[2-(2-{[2-(2,6-dioxopiperidin-3-yl)-1,3-dioxo-2,3-dihydro-1H-isoindol-4-yl]oxy}acetamido)ethoxy]ethyl}carbamoyl)pentyl]-3,3-dimethyl-2-[(1E,3E)-5-[(2E)-1,3,3-trimethyl-5-sulfo-2,3-dihydro-1H-indol-2-ylidene]penta-1,3-dien-1-yl]-3H-indol-1-ium-5-sulfonate as a fluorescent probe. Biochemical assays were conducted in Greiner white 384 well HiBase plates (Cat. No 784075-25) in 20 μL total volume. A one pot detection solution of CRBN-DDB1 (2.5 nM), Anti-His Terbium Cryptate Gold (1×, PerkinElmer Cat. #: 61HI2TLB), and Cy5-Thalidomide (100 nM, Tenova Cat.: T52461) was prepared in 20 mM HEPES, 20 mM NaCl, 0.2 mM TCEP, 0.2 mM EDTA, and 0.005% Tween20 was dispensed to each assay plate. Compounds were stored in dry, ambient temperatures at 10 mM. An 11-point, 1:3 dilution series was prepared from 10 mM stock concentrations in Echo-compatible LDV plates. 10 nL of each compound dilution series was dispensed into assays wells using an Echo 650 (Labcyte Inc. USA). 20 nL of 10 mM Lenalidomide was transferred into the active-control wells for the assay and 20 nL of DMSO was transferred into the neutral-control wells. The assay was then allowed to incubate for 30 min at ambient temperature after transferring compound. Plate measurements were taken on a Pherastar FSX (BMG Labtech, Germany) using the HTRF Red filter (Ex. 337 nm, em1: 620 nm, em2: 665 nm) (Flashes: 50, Integration time: 60-400 us, Z-height: 10 mm, Ratio-multiplier: 10,000). The HTRF signal was then subsequently normalized to the neutral and active controls. Analysis and EC50 values were derived using KNIME analytics (KNIME Zurich) transformation and fitting within Collaborative Drug Discovery (Collaborative Drug Discovery USA). Ki was derived from the geometric mean of the EC50 values using the Cheng-Prustoff transformation.

NEK7 = NEK7 (Homo sapiens (Human), UniProt Q8TDX7+Q96SW2); experiment: NEK7 NanoBiT degradation assay in Cal51 NEK7 NanoBiT cell line; assay type: cell-based; details: Cal51 NEK7 NanoBiT cells, 24 hours; for Dmax: CAL-51
Protocol: Cal51 NEK7 NanoBiT cell line was generated via CRISPR Knock-In of the HiBiT tag in NEK7 gene and stable infection with a lentivirus carrying LgBiT protein. The cell line was generated in house. For the experiment, cells were plated in 384-well white flat bottom plates (Corning, 3570BC) at 2500 cells per well using Multiflo (BioTek/Agilent) and in 25 μl volume in DMEM experimental medium: DMEM (DMEM, high glucose, HEPES, no phenol red (ThermoFisher Scientific, 21063029) supplemented with 10% FBS (Corning, 35-075-CV), 1% Penicillin/Streptomycin ((ThermoFisher Scientific, 15140-122), and 1% Endurazine (Nano-Glo Endurazine Live Cell Substrate (Promega, N2571)). Cells were incubated for 16 hours at 37° C., 5% CO2 before compound addition. For dose response determination, 2.5 nL of a compound at different concentrations (stock compound concentration range: 10 mM to 0.5 μM, final concentration range inside cell plate: 1 μM to 0.05 nM) were dispensed into the plate using an Echo® 650 liquid handling device (Backman Coulter/Labcyte). Cells were incubated at 37° C., 5% CO2 for 24 hours and then signal was read on a Pherastar FSX using “LUM plus” optic module with 4095 gain and measurement interval time 0.2 seconds.
Analysis was performed in Genedata Screener (Genedata, Basel, CH). Luminescence response (R) was calculated by the formula: response=100*(S−N)/(P−N) where S is the signal of the well, N and P the mean negative and positive control values respectively of the same plate. The luminescence response was then fitted in Genedata using a 4-parameter antagonist logistic fit (hill slope unconstrained, EC50>0, top/bottom unconstrained).

[1] = NEK7 degradation, read-out: NanoBiT Dmax
[2] = NEK7 degradation, read-out: NanoBiT DC50

Chain of NEK7 (Q8TDX7 whole entry): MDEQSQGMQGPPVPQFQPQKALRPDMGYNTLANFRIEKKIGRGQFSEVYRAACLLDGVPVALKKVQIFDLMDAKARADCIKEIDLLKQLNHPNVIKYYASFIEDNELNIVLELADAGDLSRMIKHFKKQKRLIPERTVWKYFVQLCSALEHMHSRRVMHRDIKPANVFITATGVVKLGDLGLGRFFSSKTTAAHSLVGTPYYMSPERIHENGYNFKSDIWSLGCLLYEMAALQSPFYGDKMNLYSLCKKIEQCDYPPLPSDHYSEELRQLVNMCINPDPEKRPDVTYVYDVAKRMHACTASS
Chain of NEK7 (Q96SW2 whole entry): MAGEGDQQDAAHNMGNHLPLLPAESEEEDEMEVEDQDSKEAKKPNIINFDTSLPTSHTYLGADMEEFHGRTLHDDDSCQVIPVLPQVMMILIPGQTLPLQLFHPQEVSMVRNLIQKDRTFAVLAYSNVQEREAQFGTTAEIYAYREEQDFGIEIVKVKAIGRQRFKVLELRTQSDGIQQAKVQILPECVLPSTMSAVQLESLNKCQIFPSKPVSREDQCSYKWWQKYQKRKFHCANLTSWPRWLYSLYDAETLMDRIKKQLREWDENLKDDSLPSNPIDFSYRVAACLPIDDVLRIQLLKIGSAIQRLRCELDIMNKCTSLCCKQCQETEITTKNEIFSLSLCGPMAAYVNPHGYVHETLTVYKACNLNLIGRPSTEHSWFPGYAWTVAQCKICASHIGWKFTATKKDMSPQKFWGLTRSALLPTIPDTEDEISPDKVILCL
Chain of NEK7 (Q16531 2-1140 partner): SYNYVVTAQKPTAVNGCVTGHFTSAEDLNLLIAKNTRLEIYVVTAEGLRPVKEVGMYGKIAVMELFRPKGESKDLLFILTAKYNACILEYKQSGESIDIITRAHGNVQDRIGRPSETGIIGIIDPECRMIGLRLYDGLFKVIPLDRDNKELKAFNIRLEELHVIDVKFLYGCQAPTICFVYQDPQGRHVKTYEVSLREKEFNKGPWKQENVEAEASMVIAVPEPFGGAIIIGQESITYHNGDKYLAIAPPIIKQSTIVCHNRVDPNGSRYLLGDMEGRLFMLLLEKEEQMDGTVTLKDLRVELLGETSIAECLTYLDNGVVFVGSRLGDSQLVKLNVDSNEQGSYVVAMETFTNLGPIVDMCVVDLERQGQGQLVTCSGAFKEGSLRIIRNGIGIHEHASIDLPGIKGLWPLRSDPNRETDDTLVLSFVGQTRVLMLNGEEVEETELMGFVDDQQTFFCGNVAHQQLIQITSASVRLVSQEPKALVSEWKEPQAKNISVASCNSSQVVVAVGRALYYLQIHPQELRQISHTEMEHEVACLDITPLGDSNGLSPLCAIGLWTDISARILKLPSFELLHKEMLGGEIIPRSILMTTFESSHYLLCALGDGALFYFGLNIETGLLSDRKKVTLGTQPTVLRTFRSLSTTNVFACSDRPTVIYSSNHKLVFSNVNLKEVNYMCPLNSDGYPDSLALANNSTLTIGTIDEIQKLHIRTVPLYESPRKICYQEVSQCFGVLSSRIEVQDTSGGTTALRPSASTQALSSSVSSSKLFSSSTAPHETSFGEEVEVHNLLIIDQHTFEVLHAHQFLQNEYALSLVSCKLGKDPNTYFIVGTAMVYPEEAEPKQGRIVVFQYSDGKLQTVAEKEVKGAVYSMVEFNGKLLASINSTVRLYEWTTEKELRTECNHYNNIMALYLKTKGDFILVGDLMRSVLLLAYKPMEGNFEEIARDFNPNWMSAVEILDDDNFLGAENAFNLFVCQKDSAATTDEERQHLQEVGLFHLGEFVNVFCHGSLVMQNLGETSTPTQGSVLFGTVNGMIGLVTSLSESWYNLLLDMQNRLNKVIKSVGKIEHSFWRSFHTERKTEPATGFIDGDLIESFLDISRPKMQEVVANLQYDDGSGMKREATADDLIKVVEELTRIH
Chain of CRBN-DDB1 (Q96SW2 whole entry): as the sequence (Q96SW2 whole entry) above
Chain of CRBN-DDB1 (Q16531 whole entry partner): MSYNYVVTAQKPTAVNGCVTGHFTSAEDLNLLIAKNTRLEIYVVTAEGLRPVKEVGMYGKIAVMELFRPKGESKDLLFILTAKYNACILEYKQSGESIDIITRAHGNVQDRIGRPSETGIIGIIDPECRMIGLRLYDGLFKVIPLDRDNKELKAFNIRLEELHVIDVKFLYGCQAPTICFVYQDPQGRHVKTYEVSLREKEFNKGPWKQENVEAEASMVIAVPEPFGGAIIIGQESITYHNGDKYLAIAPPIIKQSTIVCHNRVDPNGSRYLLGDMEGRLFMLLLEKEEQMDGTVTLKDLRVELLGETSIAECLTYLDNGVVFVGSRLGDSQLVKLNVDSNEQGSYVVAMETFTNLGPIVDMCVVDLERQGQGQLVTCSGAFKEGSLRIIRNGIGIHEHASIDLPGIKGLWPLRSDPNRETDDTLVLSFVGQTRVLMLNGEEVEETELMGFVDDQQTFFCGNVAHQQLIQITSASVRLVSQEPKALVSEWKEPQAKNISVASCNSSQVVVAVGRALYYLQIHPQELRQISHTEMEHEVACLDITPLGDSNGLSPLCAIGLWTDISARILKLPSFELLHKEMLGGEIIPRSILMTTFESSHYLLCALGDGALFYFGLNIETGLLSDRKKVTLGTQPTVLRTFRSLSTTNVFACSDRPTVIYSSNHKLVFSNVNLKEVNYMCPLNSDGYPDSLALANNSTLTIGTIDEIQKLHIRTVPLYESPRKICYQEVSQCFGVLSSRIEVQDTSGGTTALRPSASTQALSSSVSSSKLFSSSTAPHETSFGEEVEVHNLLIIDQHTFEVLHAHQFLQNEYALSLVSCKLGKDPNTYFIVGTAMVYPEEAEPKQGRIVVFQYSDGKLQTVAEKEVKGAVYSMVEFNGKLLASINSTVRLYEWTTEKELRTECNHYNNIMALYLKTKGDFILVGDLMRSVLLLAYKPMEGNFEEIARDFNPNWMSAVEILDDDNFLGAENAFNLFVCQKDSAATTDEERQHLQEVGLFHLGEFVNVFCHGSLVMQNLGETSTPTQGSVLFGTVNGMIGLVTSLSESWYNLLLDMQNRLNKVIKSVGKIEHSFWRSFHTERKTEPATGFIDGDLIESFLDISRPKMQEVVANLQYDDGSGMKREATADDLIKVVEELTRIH

SMILES	pEC50 (CRBN-DDB1)	pEC50 (CRBN-DDB1; HTRF class, Cereblon binding)	Dmax (NEK7; read-out: NEK7 NanoBiT Dmax)	Dmax (NEK7; [1])	DC50 (NEK7; read-out: NEK7 NanoBiT DC50)	DC50 (NEK7; [2])
CC(C)(C(=O)NCc1cc(Cl)c(C2CCC(=O)NC2=O)c(Cl)c1)c1cc2ncccc2cn1 (stereo not drawn) [Compound 2, N-(3,5-dichloro-4-(2,6-dioxopiperidin-3-yl)benzyl)-2-methyl-2-(1,6-naphthyridin-7-yl)propanamide]	6.96	6.00 to 7.00	94%	> 75%	3 nM	≤ 100 nM
CC(C)(C(=O)NCc1ccc(C2CCC(=O)NC2=O)c(Cl)c1)c1cnc(F)nc1 (stereo not drawn) [Compound 3]	6.30	6.00 to 7.00	65%	50 to 75%	242 nM	100 to 1000 nM
CC(C)(C(=O)NCc1cc(Cl)c(C2CCC(=O)NC2=O)c(Cl)c1)c1ccc(C(F)F)cn1 (stereo not drawn) [Compound 4, N-(3,5-dichloro-4-(2,6-dioxopiperidin-3-yl)benzyl)-2-(5-(difluoromethyl)pyridin-2-yl)-2-methylpropanamide]	6.92	6.00 to 7.00	94%	> 75%	3 nM	≤ 100 nM
CC(C)(C(=O)NCc1cc(Cl)c(C2CCC(=O)NC2=O)c(Cl)c1)c1cnc(F)nc1 (stereo not drawn) [Compound 5, N-(3,5-dichloro-4-(2,6-dioxopiperidin-3-yl)benzyl)-2-(2-fluoropyrimidin-5-yl)-2-methylpropanamide]	6.92	6.00 to 7.00	63%	50 to 75%	133 nM	100 to 1000 nM
CC(C)(C(=O)NCc1cc(Cl)c(C2CCC(=O)NC2=O)c(Cl)c1)c1ccc(C(F)F)nn1 (stereo not drawn) [Compound 6, N-(3,5-dichloro-4-(2,6-dioxopiperidin-3-yl)benzyl)-2-(6-(difluoromethyl)pyridazin-3-yl)-2-methylpropanamide]	6.68	6.00 to 7.00	91%	> 75%	7 nM	≤ 100 nM
CC(C)(C(=O)NCc1cc(Cl)c(C2CCC(=O)NC2=O)c(Cl)c1)c1cccnn1 (stereo not drawn) [Compound 7, N-(3,5-dichloro-4-(2,6-dioxopiperidin-3-yl)benzyl)-2-methyl-2-(pyridazin-3-yl)propanamide]	6.82	6.00 to 7.00	72%	50 to 75%	61 nM	≤ 100 nM
CC(C)(C(=O)NCc1cc(Cl)c(C2CCC(=O)NC2=O)c(Cl)c1)c1ncncc1F (stereo not drawn) [Compound 8]	6.68	6.00 to 7.00	93%	> 75%	6 nM	≤ 100 nM
Cn1ncc(C(C)(C)C(=O)NCc2cc(Cl)c(C3CCC(=O)NC3=O)c(Cl)c2)cc1=O (stereo not drawn) [Compound 9, N-(3,5-dichloro-4-(2,6-dioxopiperidin-3-yl)benzyl)-2-methyl-2-(1-methyl-6-oxo-1,6-dihydropyridazin-4-yl)propanamide]	6.68	6.00 to 7.00	85%	> 75%	22 nM	≤ 100 nM
CC(C)(C(=O)NCc1cc(Cl)c(C2CCC(=O)NC2=O)c(Cl)c1)c1ccc2ncoc2c1 (stereo not drawn) [Compound 10, 2-(benzo[d]oxazol-6-yl)-N-(3,5-dichloro-4-(2,6-dioxopiperidin-3-yl)benzyl)-2-methylpropanamide]	7.22	≥ 7.00	97%	> 75%	1 nM	≤ 100 nM
CC(C)(C(=O)NCc1cc(Cl)c(C2CCC(=O)NC2=O)c(Cl)c1)c1ncc(F)cn1 (stereo not drawn) [Compound 11]	6.72	6.00 to 7.00	90%	> 75%	9 nM	≤ 100 nM
Cc1ccc(C(C)(C)C(=O)NCc2cc(Cl)c(C3CCC(=O)NC3=O)c(Cl)c2)nn1 (stereo not drawn) [Compound 12]	6.77	6.00 to 7.00	91%	> 75%	8 nM	≤ 100 nM
